Measurements reported in ChEMBL document CHEMBL3856212, “Synthesis, anti-proliferative and genotoxicity studies of 6-chloro-5-(2-substituted-ethyl)-1,3-dihydro-2H-indol-2-ones and 6-chloro-5-(2-chloroethyl)-3-(alkyl/ary-2-ylidene)indolin-2-ones” (Eur J Med Chem, 2016).

Experiments:
[1] = Cytotoxicity against human NCI-H460 cells assessed as growth inhibition after 48 hrs by SRB assay; format: functional; details: NCI-H460, 48 h; for CC50: read-out: LD50 (the source's name)
[2] = Cytotoxicity against human MALME-3M cells assessed as assessed as growth inhibition at 10^-5 M after 48 hrs by SRB assay relative to control; format: functional; details: read-out: GI
[3] = Cytotoxicity against human SK-MEL-2 cells assessed as growth inhibition after 48 hrs by SRB assay; format: functional; details: SK-MEL-2, 48 h; for CC50: read-out: LD50 (the source's name)
[4] = Cytotoxicity against human SF295 cells assessed as growth inhibition after 48 hrs by SRB assay; format: functional; details: SF-295, 48 h; for CC50: read-out: LD50 (the source's name)
[5] = Cytotoxicity against human NCI-H23 cells assessed as assessed as growth inhibition at 10^-5 M after 48 hrs by SRB assay relative to control; format: functional; details: NCI-H23, 48 h, read-out: GI
[6] = Cytotoxicity against human LOXIMVI cells assessed as assessed as growth inhibition at 10^-5 M after 48 hrs by SRB assay relative to control; format: functional; details: LOX IMVI, read-out: GI
[7] = Cytotoxicity against human MDA-MB-468 cells assessed as growth inhibition after 48 hrs by SRB assay; format: functional; details: MDA-MB-468, 48 h; for CC50: read-out: LD50 (the source's name)
[8] = Induction of apoptosis in mouse EAC cells at 125 uM after 24 hrs by acridine orange dye-based fluorescence microscopy (reference value: 0.66 +/- 0.33%); format: cell-based; details: ehrlich
[9] = Cytotoxicity against human SK-MEL-5 cells assessed as growth inhibition after 48 hrs by SRB assay; format: functional; details: SK-MEL-5, 48 h; for CC50: read-out: LD50 (the source's name)
[10] = Cytotoxicity against human CCRF-CEM cells assessed as growth inhibition after 48 hrs by SRB assay; format: functional; details: for CC50: read-out: LD50 (the source's name)
[11] = Cytotoxicity against human Hs 578T cells assessed as assessed as growth inhibition at 10^-5 M after 48 hrs by SRB assay relative to control; format: functional; details: read-out: GI
[12] = Cytotoxicity against human OVCAR3 cells assessed as growth inhibition after 48 hrs by SRB assay; format: functional; details: OVCAR-3, 48 h; for CC50: read-out: LD50 (the source's name)
[13] = Cytotoxicity against human NCI-ADR-RES cells assessed as assessed as growth inhibition at 10^-5 M after 48 hrs by SRB assay relative to control; format: functional; details: read-out: GI
[14] = Cytotoxicity against human U251 cells assessed as growth inhibition after 48 hrs by SRB assay; format: functional; details: U-251, 48 h; for CC50: read-out: LD50 (the source's name)
[15] = Cytotoxicity against human ACHN cells assessed as growth inhibition after 48 hrs by SRB assay; format: functional; details: for CC50: read-out: LD50 (the source's name)
[16] = Cytotoxicity against human HCT15 cells assessed as assessed as growth inhibition at 10^-5 M after 48 hrs by SRB assay relative to control; format: functional; details: HCT-15, 48 h, read-out: GI
[17] = Cytotoxicity against human PC3 cells assessed as assessed as growth inhibition at 10^-5 M after 48 hrs by SRB assay relative to control; format: functional; details: PC-3, 48 h, read-out: GI
[18] = Cytotoxicity against human K562 cells assessed as growth inhibition after 48 hrs by SRB assay; format: functional; details: K562, 48 h; for CC50: read-out: LD50 (the source's name)
[19] = Cytotoxicity against human NCI-ADR-RES cells assessed as growth inhibition after 48 hrs by SRB assay; format: functional; details: for CC50: read-out: LD50 (the source's name)
[20] = Cytotoxicity against human NCI-H226 cells assessed as assessed as growth inhibition at 10^-5 M after 48 hrs by SRB assay relative to control; format: functional; details: NCI-H226, 48 h, read-out: GI
[21] = Cytotoxicity against human A498 cells assessed as assessed as growth inhibition at 10^-5 M after 48 hrs by SRB assay relative to control; format: functional; details: A498, 48 h, read-out: GI
[22] = Cytotoxicity against human MCF7 cells assessed as growth inhibition after 48 hrs by SRB assay; format: functional; details: MCF7, 48 h; for CC50: read-out: LD50 (the source's name)
[23] = Cytotoxicity against human 786-0 cells assessed as assessed as growth inhibition at 10^-5 M after 48 hrs by SRB assay relative to control; format: functional; details: 786-0, 48 h, read-out: GI
[24] = Cytotoxicity against human A498 cells assessed as growth inhibition after 48 hrs by SRB assay; format: functional; details: A498, 48 h; for CC50: read-out: LD50 (the source's name)
[25] = Cytotoxicity against human U251 cells assessed as assessed as growth inhibition at 10^-5 M after 48 hrs by SRB assay relative to control; format: functional; details: U-251, 48 h, read-out: GI
Mus musculus = species: Mus musculus; experiment: Genotoxicity in mouse EAC cells at 125 uM after 24 hrs by micronucleus assay (reference value: 3.5 +/- 0.30%); format: toxicity, cell-based; details: ehrlich
[26] = Cytotoxicity against human A549 cells assessed as assessed as growth inhibition at 10^-5 M after 48 hrs by SRB assay relative to control; format: functional; details: A549, 48 h, read-out: GI
[27] = Cytotoxicity against human OVCAR5 cells assessed as assessed as growth inhibition at 10^-5 M after 48 hrs by SRB assay relative to control; format: functional; details: OVCAR-5, 48 h, read-out: GI
[28] = Cytotoxicity against human M14 cells assessed as assessed as growth inhibition at 10^-5 M after 48 hrs by SRB assay relative to control; format: functional; details: M14, 48 h, read-out: GI
[29] = Cytotoxicity against human HCT116 cells assessed as growth inhibition after 48 hrs by SRB assay; format: functional; details: HCT-116, 48 h; for CC50: read-out: LD50 (the source's name)
[30] = Cytotoxicity against human HCC2998 cells assessed as assessed as growth inhibition at 10^-5 M after 48 hrs by SRB assay relative to control; format: functional; details: HCC 2998, 48 h, read-out: GI
[31] = Cytotoxicity against human BT549 cells assessed as assessed as growth inhibition at 10^-5 M after 48 hrs by SRB assay relative to control; format: functional; details: BT-549, 48 h, read-out: GI
[32] = Cytotoxicity against human SN12C cells assessed as assessed as growth inhibition at 10^-5 M after 48 hrs by SRB assay relative to control; format: functional; details: read-out: GI
[33] = Cytotoxicity against human SN12C cells assessed as growth inhibition after 48 hrs by SRB assay; format: functional; details: for CC50: read-out: LD50 (the source's name)

O=C1Cc2cc(CCn3ccnc3)c(Cl)cc2N1
GI50 [1]: 1610 nM | TGI [1]: > 1000 nM | CC50 [1]: > 1000 nM | inhibition of growth at 10 µM [2]: 2.24% | GI50 [3]: 5780 nM | TGI [3]: 7360 nM | CC50 [3]: > 1000 nM | GI50 [4]: 7870 nM | TGI [4]: > 1000 nM | CC50 [4]: > 1000 nM | inhibition of growth at 10 µM [5]: 73.3% | inhibition of growth at 10 µM [6]: 26.4% | GI50 [7]: 2740 nM | TGI [7]: > 1000 nM | CC50 [7]: > 1000 nM | Activity [8]: 0.33% | GI50 [9]: 8120 nM | TGI [9]: > 1000 nM | CC50 [9]: > 1000 nM | GI50 [10]: 3370 nM | TGI [10]: > 1000 nM | CC50 [10]: > 1000 nM | inhibition of growth at 10 µM [11]: 68.9% | GI50 [12]: 9310 nM | TGI [12]: 7810 nM | CC50 [12]: > 1000 nM | inhibition of growth at 10 µM [13]: 54.3% | GI50 [14]: 8240 nM | TGI [14]: > 1000 nM | CC50 [14]: > 1000 nM | GI50 [15]: 2030 nM | TGI [15]: > 1000 nM | CC50 [15]: > 1000 nM | inhibition of growth at 10 µM [16]: 32.8% | inhibition of growth at 10 µM [17]: 11.7% | GI50 [18]: 8260 nM | TGI [18]: > 1000 nM | CC50 [18]: > 1000 nM | GI50 [19]: 5460 nM | TGI [19]: > 1000 nM | CC50 [19]: > 1000 nM | inhibition of growth at 10 µM [20]: 10.7% | inhibition of growth at 10 µM [21]: 32.2% | GI50 [22]: 4120 nM | TGI [22]: > 1000 nM | CC50 [22]: > 1000 nM | inhibition of growth at 10 µM [23]: 10.6% | GI50 [24]: 2190 nM | TGI [24]: 6110 nM | CC50 [24]: > 1000 nM | inhibition of growth at 10 µM [25]: 32.7% | Activity (Mus musculus): 2.76% | inhibition of growth at 10 µM [26]: 33.3% | inhibition of growth at 10 µM [27]: 18.9% | inhibition of growth at 10 µM [28]: 76.3% | GI50 [29]: 1310 nM | TGI [29]: > 1000 nM | CC50 [29]: > 1000 nM | inhibition of growth at 10 µM [30]: 28.5% | inhibition of growth at 10 µM [31]: 30.3% | inhibition of growth at 10 µM [32]: 48.8% | GI50 [33]: 1650 nM | TGI [33]: > 1000 nM | CC50 [33]: > 1000 nM

O=C1Cc2cc(CCN3CCNCC3)c(Cl)cc2N1
GI50 [1]: 2290 nM | TGI [1]: > 1000 nM | CC50 [1]: > 1000 nM | inhibition of growth at 10 µM [2]: 19.6% | GI50 [3]: 1520 nM | TGI [3]: > 1000 nM | CC50 [3]: > 1000 nM | GI50 [4]: 4200 nM | TGI [4]: > 1000 nM | CC50 [4]: > 1000 nM | inhibition of growth at 10 µM [5]: 77.2% | inhibition of growth at 10 µM [6]: 21.4% | GI50 [7]: 2240 nM | TGI [7]: 7420 nM | CC50 [7]: > 1000 nM | Activity [8]: 1% | GI50 [9]: 5330 nM | TGI [9]: > 1000 nM | CC50 [9]: > 1000 nM | GI50 [10]: 2980 nM | TGI [10]: > 1000 nM | CC50 [10]: > 1000 nM | inhibition of growth at 10 µM [11]: 69.9% | GI50 [12]: 1410 nM | TGI [12]: > 1000 nM | CC50 [12]: > 1000 nM | inhibition of growth at 10 µM [13]: 51.6% | GI50 [14]: 7790 nM | TGI [14]: > 1000 nM | CC50 [14]: > 1000 nM | GI50 [15]: 1000 nM | TGI [15]: > 1000 nM | CC50 [15]: > 1000 nM | inhibition of growth at 10 µM [16]: 51.2% | inhibition of growth at 10 µM [17]: 16.5% | GI50 [18]: 6240 nM | TGI [18]: > 1000 nM | CC50 [18]: > 1000 nM | GI50 [19]: 5110 nM | TGI [19]: > 1000 nM | CC50 [19]: > 1000 nM | inhibition of growth at 10 µM [20]: 19.4% | inhibition of growth at 10 µM [21]: 33.9% | GI50 [22]: 3650 nM | TGI [22]: > 1000 nM | CC50 [22]: > 1000 nM | inhibition of growth at 10 µM [23]: 15.3% | GI50 [24]: 2850 nM | TGI [24]: > 1000 nM | CC50 [24]: > 1000 nM | inhibition of growth at 10 µM [25]: 43% | Activity (Mus musculus): 3.36% | inhibition of growth at 10 µM [26]: 51.1% | inhibition of growth at 10 µM [27]: 34.7% | inhibition of growth at 10 µM [28]: 75.5% | GI50 [29]: 1000 nM | TGI [29]: > 1000 nM | CC50 [29]: > 1000 nM | inhibition of growth at 10 µM [30]: 24.3% | inhibition of growth at 10 µM [31]: 40.9% | inhibition of growth at 10 µM [32]: 52.8% | GI50 [33]: 6000 nM | TGI [33]: > 1000 nM | CC50 [33]: > 1000 nM
